Test results reported in US20070265301A1, “Dpp-IV Inhibitors” (priority 2004, published 2007).
Where a name gives a salt, the structure may show the parent alone.

Target: T1, DPP-IV (Homo sapiens, UniProt P27487)
T1 construct: Soluble human DPP-IV lacking the transmembrane anchor (Gly31-Pro766); Pre-Pro-alpha-mating factor leader (secretion signal) (N, cleaved yes); made in house
Test: Continuous fluorimetric assay of DPP-IV peptidase activity (Gly-Pro-AMC cleavage)
Assay type: biochemical
Details: 50 pM DPP-IV, 16 μM Gly-Pro-AMC, pH 7.4, 25° C., 1% DMSO; values grouped in 3 classes; read-out: IC50 for inhibition of DPP-IV peptidase activity
Protocol: Inhibition of DPP-IV peptidase activity was monitored with a continuous fluorimetric assay. This assay is based on the cleavage of the substrate Gly-Pro-AMC (Bachem) by DPP-IV, releasing free AMC. The assay is carried out in 96-well microtiterplates. In a total volume of 100 μL, compounds are preincubated with 50 pM DPP-IV employing a buffer containing 10 mM Hepes, 150 mM NaCl, 0.005% Tween 20 (pH 7.4). The reaction is started by the addition of 16 μM substrate and the fluorescence of liberated AMC is detected for 10 minutes at 25° C. with a fluorescence reader (BMG-Fluostar; BMG-Technologies) using an excitation wavelength of 370 nm and an emission wavelength of 450 nm. The final concentration of DMSO is 1%. The inhibitory potential of the compounds were determined.
Soluble human DPP-IV lacking the transmembrane anchor (Gly31-Pro766) was expressed in a recombinant YEAST-strain as Pre-Pro-alpha-mating fusion. The secreted product (rhuDPP-IV-Gly31-Pro766) was purified from fermentation broth (>90% purity).
In the table are listed the IC50 values for inhibition of DPP-IV peptidase activity determined in assays as described above.

T1 sequence (P27487 31-766): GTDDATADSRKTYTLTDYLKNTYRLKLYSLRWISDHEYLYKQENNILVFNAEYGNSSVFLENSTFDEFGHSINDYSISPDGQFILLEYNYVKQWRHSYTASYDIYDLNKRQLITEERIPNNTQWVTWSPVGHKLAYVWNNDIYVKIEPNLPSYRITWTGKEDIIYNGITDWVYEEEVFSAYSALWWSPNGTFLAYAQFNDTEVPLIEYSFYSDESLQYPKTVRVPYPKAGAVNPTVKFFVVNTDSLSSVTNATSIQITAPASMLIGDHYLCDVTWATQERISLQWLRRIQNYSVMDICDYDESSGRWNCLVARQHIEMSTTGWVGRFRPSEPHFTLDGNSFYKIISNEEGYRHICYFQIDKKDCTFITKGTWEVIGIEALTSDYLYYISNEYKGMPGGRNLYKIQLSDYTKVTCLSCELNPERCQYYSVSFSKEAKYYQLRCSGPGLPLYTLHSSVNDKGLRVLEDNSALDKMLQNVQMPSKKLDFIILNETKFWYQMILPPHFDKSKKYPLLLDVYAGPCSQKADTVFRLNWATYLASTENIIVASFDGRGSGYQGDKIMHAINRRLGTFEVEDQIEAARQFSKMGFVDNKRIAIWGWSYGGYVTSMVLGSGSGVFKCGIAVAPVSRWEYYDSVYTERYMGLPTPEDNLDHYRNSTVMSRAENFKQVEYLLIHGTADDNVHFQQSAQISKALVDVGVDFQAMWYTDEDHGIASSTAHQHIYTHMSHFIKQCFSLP

SMILES	IC50 [nM]
CS(=O)(=O)NC[C@@H]1Cc2ccccc2CN1C(=O)C[C@H](N)Cc1ccccc1F [Example 8, N-{2-[(3R)-3-Amino-4-[2-fluoro-phenyl)-butyryl]-1,2,3,4-tetrahydro-isoquinolin-(3S)-3-ylmethyl}-methanesulfonamide, trifluoroacetate salt]	≤ 100
CN(C)C[C@@H]1Cc2ccccc2CN1C(=O)C[C@H](N)Cc1ccccc1F [Example 7, (3R)-3-Amino-1-(3S)-3-(3-dimethylaminomethyl-3,4-dihydro-1H-isoquinolin-2-yl)-4-(2-fluorophenyl)-butan-1-one, trifluoroacetate salt]	1000 to 2000
Cc1cc(C(=O)NC[C@@H]2Cc3ccccc3CN2C(=O)C[C@H](N)Cc2ccccc2F)no1 [Example 5, 5-Methyl-isoxazole-3-carboxylic acid-{2-[(3R)-3-amino-4-(2-fluoro-phenyl)-butyryl]-1,2,3,4-tetrahydro-isoquinolin-(3S)-3-ylmethyl}-amide, trifluoroacetate salt]	≤ 100
N[C@@H](CC(=O)N1Cc2ccccc2C[C@H]1CNC(=O)C1CC1)Cc1ccccc1F [Example 1, Cyclopropanecarboxylic acid {2-[(3R)-3-amino-4-(2-fluoro-phenyl)-butyryl]-1,2,3,4-tetrahydro-isoquinolin-(3S)-3-ylmethyl]-amide, trifluoroacetate salt]	101 to 1000
Nc1nc(C(=O)NC[C@@H]2Cc3ccccc3CN2C(=O)C[C@H](N)Cc2ccccc2F)n[nH]1 [Example 6, 5-Amino-1H-[1,2,4]triazole-3-carboxylic acid-{2-[(3R)-3-amino-4-(2-fluoro-phenyl)-butyryl]-1,2,3,4-tetrahydro-isoquinolin-(3S)-3-ylmethyl-amide, trifluoroacetate salt]	≤ 100
N[C@@H](CC(=O)N1Cc2ccccc2C[C@H]1CNS(=O)(=O)C1CC1)Cc1cccc(Cl)c1 [Example 10, Cyclopropanesulfonic acid {2-[(3R)-3-amino-4-(3-chloro-phenyl)-butyryl]-1,2,3,4-tetrahydro-isoquinolin-(3S)-3-ylmethyl]-amide, trifluoroacetate salt]	≤ 100
N[C@@H](CC(=O)N1Cc2ccccc2C[C@H]1COc1cccc(F)c1)Cc1ccccc1F [Example 12, trifluoroacetate salt]	≤ 100
N[C@@H](CC(=O)N1Cc2ccccc2C[C@H]1CNC(=O)C1(O)CC1)Cc1ccccc1F [Example 2, 1-Hydroxy-cyclopropanecarboxylic acid {2-[(3R)-3-amino-4-(2-fluoro-phenyl)-butyryl]-1,2,3,4-tetrahydro-isoquinolin-(3S)-3-ylmethyl}-amide, trifluoroacetate salt]	101 to 1000
NC(CC(=O)N1Cc2ccccc2C[C@H]1CNS(=O)(=O)C1CC1)Cc1cc(F)ccc1F (mixture of isomers) [Example 11, Cyclopropanesulfonic acid {2-[(3-amino-4-(2,5-difluoro-phenyl)-butyryl]-1,2,3,4-tetrahydro-isoquinolin-(3S)-3-ylmethyl}-amide, trifluoroacetate salt]	≤ 100
N[C@@H](CC(=O)N1Cc2ccccc2C[C@H]1CNC(=O)CO)Cc1ccccc1F [Example 3, N-{2-[(3R)-3-Amino-4-(2-fluoro-phenyl)-butyryl-1,2,3,4-tetrahydroisoquinolin-(3S)-3-ylmethyl}-2-hydroxy-acetamide, trifluoroacetate salt]	101 to 1000
N[C@@H](CC(=O)N1c2ccccc2CC1COCc1ccccc1)Cc1ccccc1F (mixture of isomers) [Example 13, (3R)-3-Amino-1-benzyloxymethyl-2,3-dihydro-indo-1-yl)-4-(2-fluorophenyl)-butan-1-one trifluoroacetate salt]	1000 to 2000
N[C@@H](CC(=O)N1Cc2ccccc2C[C@H]1CNS(=O)(=O)C1CC1)Cc1ccccc1F [Example 9, Cyclopropanesulfonic acid {2-[(3R)-3-amino-4-(2-fluoro-phenyl)-butyryl]-1,2,3,4-tetrahydro-isoquinolin-(3S)-3-ylmethyl-amide, trifluoroacetate salt]	≤ 100
N[C@@H](CC(=O)N1Cc2ccccc2CC1COCc1ccccc1)Cc1ccccc1F (stereo partly drawn) [Example 14, (3R)-3-Amino-1-benzyloxymethyl-3,4-dihydro-1H-isoquinolin-2-yl)-4-(2-fluorophenyl)-butan-1-one, trifluoroacetate salt]	≤ 100
N[C@@H](CC(=O)N1Cc2ccccc2C[C@H]1CNC(=O)c1ccccc1)Cc1ccccc1F [Example 4, N-{2-[(3R)-3-Amino-4-(2-fluoro-phenyl)-butyryl}-1,2,3,4-tetrahydro-isoquinolin-(3S)-3-ylmethyl}-benzamide, trifluoroacetate salt]	≤ 100
